Data published in US20100029615A1, “BENZIMIDAZOLE DERIVATIVES” (priority 2006, published 2010).
Structures can show the parent of a compound that is named as a salt.

Molecular target: T1, SMO (Mus musculus, UniProt P56726)
T1 construct: endogenous in cells; host or cells: C3H10T1/2 (ATCC #CCL-226)
Assay: Smoothened (SMO)/Sonic Hedgehog (SHh) Transient Transcriptional Activation Assay (Gli-luciferase reporter in C3H10T1/2 cells)
Format: cell-based, murine
Conditions: C3H 10T1/2, 2 uM test compound, SHh 250 ng/ml, 20 hrs, read-out: SMO % inhibition at 2 uM
Description: As noted above, the compounds of the invention are useful as inhibitors of SMO. Methods for determining the in vitro activity of these compounds are described below: Smoothened (SMO)/Sonic Hedgehog (SHh) Transient Transcriptional Activation Assay
On Day 1,2×10^6 C3H10T1/2 cells (ATCC #CCL-226) were split and seeded in 12 mls of growth medium Basal Medium Eagle (BME, Invitrogen #21010-046) supplemented with 2 mM L-glutamine (Invitrogen #25030-081), 0.1 units/ml penicillin and 0.1 ug/ml streptomycin (Invitrogen #15140-122), and 10% Fetal Bovine Serum (FBS, Invitrogen #16140-071) in a T-75 flask (Costar #3376). They were allowed to attach for 4 hours at 37° C., 5% CO2. The cells were then transfected using Fugene 6 (Roch #11 814 443 001) in the following reaction: 48 ul Fugene 6 and 745 ul Opti-MEM (Invitrogen #31985-070) were mixed and allowed to sit at room temperature for 5 minutes. 8 ug of pGL4.14/mGli(CS) DNA (10× murine Gli response elements and minimal CS promoter) and 0.5 ug of pEGFP DNA (Clontech) were added, gently mixed and incubated at room temperature for 20 minutes. This entire transfection mix was then added to the T-75 flask containing the cells. The cells were incubated at 37 °C, 5% C02 for 18-24 hrs.
On Day 2, the transfected cells were trypsinized and seeded into white 96 well plates (Costar #3917) in 100ul/well of growth medium at a concentration of 20,000 cells/well. The cells were allowed to recover for 4 hrs before adding serum starvation medium Dulbecco's Modified Eagle Medium (DMEM, Invitrogen #21063-029) supplemented with 2 mM L-glutamine, 0.1 units/ml penicillin and 0.1 ug/ml streptomycin, and 0.5% Calf Serum (CS, Invitrogen #26170-043). The growth media was aspirated off, and the cells were rinsed with 100 ul of starvation media. 95 ul of starvation media was then added to each well. The cells were incubated for 20 hrs at 37 °C, 5% C02.
On Day 3, cells were dosed with test compounds at a final concentration ranging from 2 uM to 2 nM. Immediately after dosing cells with compounds, recombinant human sonic hedgehog (SHh, R&D Systems #1845-SH) was add to a final concentration of 250 ng/ml. A 25 ug vial of SHh was reconstituted with 250 ul PBS/0.1% BSA to give a 100 ng/ul working stock. This working stock was then diluted 1:20 in starvation media. The transfected cells were incubated with compounds and SHh for 20 hrs at 37 °C, 5% C02.
Luciferase assays were conducted on Day 4 using Dual-Glo Luciferase assay system (Promega #E2940) according to Promega's protocol. Briefly, Dual-Glo luciferase reagent was made up and 100 uls were added to each well of the 96 well plate containing media. Plates were shaken at room temperature for 10 minutes, and then read on TopCount (Perkin-Elmer). The luminescence was recorded.

T1 sequence (P56726 33-793): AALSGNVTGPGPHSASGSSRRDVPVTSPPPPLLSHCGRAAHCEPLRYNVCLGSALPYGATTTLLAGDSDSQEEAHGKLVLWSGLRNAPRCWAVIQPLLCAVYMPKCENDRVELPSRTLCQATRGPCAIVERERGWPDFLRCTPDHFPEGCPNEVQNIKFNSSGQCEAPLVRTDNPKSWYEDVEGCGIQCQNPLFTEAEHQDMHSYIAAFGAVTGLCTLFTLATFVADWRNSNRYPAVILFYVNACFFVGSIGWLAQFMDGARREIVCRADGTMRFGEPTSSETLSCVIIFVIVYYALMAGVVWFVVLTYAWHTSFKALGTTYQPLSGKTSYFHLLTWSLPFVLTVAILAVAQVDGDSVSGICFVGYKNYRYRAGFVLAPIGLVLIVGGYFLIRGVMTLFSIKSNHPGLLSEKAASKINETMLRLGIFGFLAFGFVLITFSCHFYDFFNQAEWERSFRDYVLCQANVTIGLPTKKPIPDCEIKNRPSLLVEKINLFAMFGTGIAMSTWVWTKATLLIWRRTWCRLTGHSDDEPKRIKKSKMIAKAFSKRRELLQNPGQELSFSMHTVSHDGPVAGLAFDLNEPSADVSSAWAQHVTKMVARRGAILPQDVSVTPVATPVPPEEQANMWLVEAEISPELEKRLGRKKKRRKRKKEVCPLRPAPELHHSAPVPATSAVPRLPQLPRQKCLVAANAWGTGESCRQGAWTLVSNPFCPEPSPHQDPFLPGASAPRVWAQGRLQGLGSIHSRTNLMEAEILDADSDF

Point of comparison: `O=C(Cc1nc2ccc(Cl)cc2[nH]1)NC1CCCC(c2nc3ccccc3[nH]2)C1` (stereo not shown) [Example 46, N-(3-(1H-Benzo[d]imidazol-2-yl)cyclohexyl)-2-(6-chloro-1H-benzo[d]imidazol-2-yl)acetamide], inhibition at 2 µM 108%. Against it:
- COCCNCc1ccc2nc([C@H]3CCC[C@@H](NC(=O)c4ccc5c(c4)OCCO5)C3)[nH]c2c1 [Example 43] — lower, 99%
- CN(C)Cc1ccc2nc([C@H]3CCC[C@@H](NC(=O)c4ccc5c(c4)OCCO5)C3)[nH]c2c1 [Example 44, N-((1R,3S)-3-(5-((Dimethylamino)methyl)-1H-benzo[d]imidazol-2-yl)cyclohexyl)-2,3-dihydrobenzo[b][1,4]dioxine-6-carboxamide] — lower, 107%
- CN1C(=O)COc2ccc(C(=O)N[C@@H]3CCC[C@H](c4nc5ccccc5[nH]4)C3)cc21 [Example 45, N-((1R,3S)-3-(1H-Benzo[d]midazol-2-yl)cyclohexyl)-4-methyl-3-oxo-3,4-dihydro-2H-benzo[b][1,4]oxazine-6-carboxamide] — the same, 108%
- O=C(Nc1ccc(C(F)(F)F)cc1)N[C@@H]1CCC[C@H](c2nc3ccccc3[nH]2)C1 [Example 47, 1-((1R,3S)-3-(1H-Benzo[d]imidazol-2-yl)cyclohexyl]-3-(4-(trifluoromethyl)phenyl)urea] — the same, 108%

Same assay, conditions: C3H 10T1/2, 2 μM test compound, SHh 250 ng/ml, 20 hrs, read-out: SMO CELL % INHIBITION @ 2 μM

Point of comparison: `O=C(N[C@H]1CCC[C@@H](c2nc3ccccc3[nH]2)C1)c1ccc2c(c1)OCCO2` [Example 72, N-((1S,3R)-3-(1H-benzo[d]imidazol-2-yl)cyclohexyl)-2,3-dihydrobenzo[b] [1,4]dioxine-6-carboxamide HCl], inhibition at 2 µM 96%. Against it:
- COc1cc(OC)cc(C(=O)NC2CCCC(c3nc4ccccc4[nH]3)C2)c1 (stereo not shown) [Example 52, N-[3-(1H-benzimidazol-2-yl)cyclohexyl]-3,5-dimethoxybenz-amide HCl] — higher, 105%
- O=C(NC1CCCC(c2nc3ccccc3[nH]2)C1)c1cccnc1 (stereo not shown) [Example 53, N-[3-(1H-benzimidazol-2-yl)cyclohexyl]-nicotinamide HCl] — the same, 96%
- O=C(CCC1CCCC1)NC1CCCC(c2nc3ccccc3[nH]2)C1 (stereo not shown) [Example 54, N-[3-(1H-benzimidazol-2-yl)cyclohexyl]-3-cyclopentylpro-panamide HCl] — lower, 67%
- CC(C)(C)C(=O)NC1CCCC(c2nc3ccccc3[nH]2)C1 (stereo not shown) [Example 55, N-[3-(1H-benzimidazol-2-yl)cyclohexyl]-2,2-dimethylpropan-amide HCl] — lower, 57%
- O=C(NC1CCCC(c2nc3ccccc3[nH]2)C1)c1ccco1 (stereo not shown) [Example 56, N-[3-(1H-benzimidazol-2-yl)cyclohexyl]-2-furamide HCl] — lower, 51%
- O=C(NC1CCCC(c2nc3ccccc3[nH]2)C1)C1CCCCC1 (stereo not shown) [Example 57, N-(3-(1H-benzo[d]imidazol-2-yl)cyclohexyl) cyclohexanecar-boxamide HCl] — lower, 48%
- O=C(NC1CCCC(c2nc3ccccc3[nH]2)C1)c1ccc2c(c1)OCO2 (stereo not shown) [Example 58, N-[3-(1H-benzimidazol-2-yl)cyclohexyl]-1,3-benzodioxole-5-carboxamide HCl] — lower, 82%
- COc1ccc(C(=O)NC2CCCC(c3nc4ccccc4[nH]3)C2)cc1Cl (stereo not shown) [Example 59, N-[3-(1H-benzimidazol-2-yl)cyclohexyl]-3-chloro-4-methoxybenz-amide HCl] — higher, 101%
- O=C(NC1CCCC(c2nc3ccccc3[nH]2)C1)c1ccc2[nH]cnc2c1 (stereo not shown) [Example 60, N-[3-(1H-benzimidazol-2-yl)cyclohexyl]-1H-benzimidazole-5-carboxamide HCl] — lower, 87%
- O=C(NC1CCCC(c2nc3ccccc3[nH]2)C1)c1ncc[nH]1 (stereo not shown) [Example 61, N-[3-(1H-benzimidazol-2-yl)cyclohexyl]-1H-imidazole-2-carboxamide HCl] — lower, 52%
- COc1ccc(C(=O)NC2CCCC(c3nc4ccccc4[nH]3)C2)cc1 (stereo not shown) [Example 62, N-[3-(1H-benzimidazol-2-yl)cyclohexyl]-4-methoxybenz-amide HCl] — lower, 72%
- O=C(N[C@@H]1CCC[C@H](c2nc3ccccc3[nH]2)C1)c1ccc2c(c1)OCCO2 [Example 63, N-[(1R,3S)-3-(1H-benzimidazol-2-yl)cyclohexyl]-2,3-dihydro-1,4-benzodioxine-6-carboxamide HCl] — higher, 108%
- O=C(N[C@@H]1CCC[C@H](c2nc3ccccc3[nH]2)C1)c1ccc2c(c1)OCCO2 [Example 64, N-[(1R,3S)-3-(1H-benzimidazol-2-yl)cyclohexyl]-2,3-dihydro-1,4-benzodioxine-6-carboxamide triflouroacetate] — higher, 108%
- O=C(N[C@@H]1CCC[C@@H](c2nc3ccccc3[nH]2)C1)c1ccc2c(c1)OCCO2 [Example 65, N-[(1R,3R)-3-(1H-benzimidazol-2-yl)cyclohexyl]-2,3-dihydro-1,4-benzodioxine-6-carboxamide HCl] — the same, 96%
- Cn1c([C@H]2CCC[C@@H](NC(=O)c3ccc4c(c3)OCCO4)C2)nc2ccccc21 [Example 66, N-[(1R,3S)-3-(1-methyl-1H-benzimidazol-2-yl)cyclohexyl]-2,3-dihydro-1,4-benzodioxine-6-carboxamide HCl] — higher, 107%
- COc1cc(OC)cc(C(=O)NC2CCCC(c3nc4ccc(C#N)cc4[nH]3)C2)c1 (stereo not shown) [Example 68, N-[3-(6-cyano-1H-benzimidazol-2-yl)cyclohexyl]-3,5-dimethoxybenz-amide] — lower, 89%
- COc1cc(OC)cc(C(=O)NC2CCCC(c3nc4ccc(OC)cc4[nH]3)C2)c1 (stereo not shown) [Example 69, 3,5-dimethoxy-N-[3-(6-methoxy-1H-benzimidazol-2-yl)cyclohexyl] benzamide] — higher, 105%
- COc1cc(OC)cc(C(=O)NC2CCCC(c3nc4ccc(F)cc4[nH]3)C2)c1 (stereo not shown) [Example 70, N-[3-(6-fluoro-1H-benzimidazol-2-yl)cyclohexyl]-3,5-dimethoxybenz-amide] — lower, 83%
- Cn1c(C2CCCC(NC(=O)c3ccc4c(c3)OCCO4)C2)nc2cc(CN)ccc21 (stereo not shown) [Example 73, N-{3-[5-(aminomethyl)-1-methyl-1H-benzimidazol-2-yl]cyclohexyl}-2,3-dihydro-1,4-benzodioxine-6-carboxamide HCl] — higher, 104%
- COc1cc(OC)cc(C(=O)NC2CCCC(c3nc4cc(C(F)(F)F)ccc4[nH]3)C2)c1 (stereo not shown) [Example 74, 3,5-dimethoxy-N-{3-[6-(trifluoromethyl)-1H-benzimidazol-2-yl)cyclohexyl}-benzamide HCl] — higher, 105%
- S=C(N[C@@H]1CCC[C@H](c2nc3ccccc3[nH]2)C1)c1ccc2c(c1)OCCO2 [Example 75, N-((1R,3S)-3-(1H-benzo[d]imidazol-2-yl)cyclohexyl)-2,3-dihydrobenzo[b] [1,4]dioxine-6-carbothioamide HCl] — higher, 104%
- COCCn1c([C@H]2CCC[C@@H](NC(=O)c3ccc4c(c3)OCCO4)C2)nc2ccccc21 [Example 76, N-{(1R,3S)-3-[1-(2-methoxyethyl)-1H-benzimidazol-2-yl]cyclohexyl}-2,3-dihydro-1,4-benzodioxine-6-carboxamide] — higher, 101%
- CN(C)c1ccc2nc(C3CCCC(NC(=O)c4ccc5c(c4)OCCO5)C3)[nH]c2c1 (stereo not shown) [Example 77, N-{3-[6-(dimethylamino)-1H-benzimidazol-2-yl]cyclohexyl}-2,3-dihydro-1,4-benzodioxine-6-carboxamide HCl] — higher, 102%
- CC(C)(C)c1ccc2nc(C3CCCC(NC(=O)c4ccc5c(c4)OCCO5)C3)[nH]c2c1 (stereo not shown) [Example 78, N-[3-(6-tert-butyl-1H-benzimidazol-2-yl)cyclohexyl]-2,3-dihydro-1,4-benzodioxine-6-carboxamide HCl] — higher, 100%
- Cc1cccc2nc(C3CCCC(NC(=O)c4ccc5c(c4)OCCO5)C3)[nH]c12 (stereo not shown) [Example 79, N-[3-(7-methyl-1H-benzimidazol-2-yl)cyclohexyl]-2,3-dihydro-1,4-benzodioxine-6-carboxamide HCl] — higher, 102%
